Results published in patent US20080312164A1 (priority 2006, published 2008).
Where two headings read alike, the source gives them in different places. Marks after values point to notes of the source that are not given here.

Key:
[1] = system: SK-OV-3 cells; assay: Cell Titer-Glo cytotoxicity assay, SK-OV-3; assay type: cell-based; details: Homo sapiens
Source text: (§1) Five serial 1:2 dilutions were made with anhydrous DMSO at 100× the final concentration used in the assay.

[2] = system: NCI-H460 cells; assay: Cell Titer-Glo cytotoxicity assay, NCI-H460; assay type: cell-based, human; details: Homo sapiens
Source text: as §1

[3] = system: SK-OV-3 cells; assay: Calcein AM cytotoxicity assay, SK-OV-3; assay type: cell-based; details: Homo sapiens
Source text: as §1

[4] = system: Du145 cells; assay: Calcein AM cytotoxicity assay, Du145; assay type: cell-based; details: Homo sapiens
Source text: as §1

[5] = system: NCI-H460 cells; assay: Calcein AM cytotoxicity assay, NCI-H460; assay type: cell-based; details: Homo sapiens
Source text: as §1

[6] = system: MCF7 cells; assay: Calcein AM cytotoxicity assay, MCF7; assay type: cell-based; details: Homo sapiens
Source text: as §1

[7] = system: NmuMG mouse mammary normal epithelial cells; assay: Cell Titer-Glo cytotoxicity assay, NmuMG; assay type: cell-based; details: Mus musculus, Epithelial cell, 72 h
Source text: as §1

[8] = system: MCF7 cells; assay: Cell Titer-Glo cytotoxicity assay, MCF7; assay type: cell-based, human; details: Homo sapiens
Source text: as §1

[9] = system: NCI/ADR RES cells; assay: Calcein AM cytotoxicity assay, NCI/ADR-RES; assay type: cell-based; details: Homo sapiens, 72 h
Source text: as §1

[10] = system: Hep3B cells; assay: Calcein AM cytotoxicity assay, Hep3B; assay type: cell-based; details: Homo sapiens, 72 h
Source text: as §1

[11] = system: Hep3B cells; assay: Cell Titer-Glo cytotoxicity assay, Hep3B; assay type: cell-based; details: Homo sapiens, 72 h
Source text: as §1

[12] = system: HT-29 cells; assay: MTT cytotoxicity assay, HT-29; assay type: cell-based; details: Homo sapiens
[13] = system: SF-268 cells; assay: Calcein AM cytotoxicity assay, SF-268; assay type: cell-based; details: Homo sapiens
Source text: as §1

[14] = system: Du145 cells; assay: Cell Titer-Glo cytotoxicity assay, Du145; assay type: cell-based; details: Homo sapiens
Source text: as §1

[15] = system: HCT-116 cells; assay: Calcein AM cytotoxicity assay, HCT-116; assay type: cell-based; details: Homo sapiens
Source text: as §1

[16] = system: human cancer cell lines; assay: Cytotoxicity across the panel of human cancer cell lines (average, high-throughput assays); assay type: cell-based; details: for IC50: read-out: Cancerous Average IC50 / Average IC50 in Cancer Cell Lines
Source text: as §1

[17] = system: HCT-116 cells; assay: Cell Titer-Glo cytotoxicity assay, HCT-116; assay type: cell-based; details: Homo sapiens
Source text: as §1

[18] = system: NCI/ADR RES cells; assay: Cell Titer-Glo cytotoxicity assay, NCI/ADR-RES; assay type: cell-based, human; details: Homo sapiens, NCI/ADR-RES, 72 h
Source text: as §1

[19] = system: NmuMG mouse mammary normal epithelial cells; assay: Calcein AM cytotoxicity assay, NmuMG; assay type: cell-based; details: Epithelial cell, 72 h
Source text: as §1

[20] = system: SF-268 cells; assay: Cell Titer-Glo cytotoxicity assay, SF-268; assay type: cell-based; details: Homo sapiens
Source text: as §1

[21] = SK-OV-3, Cell Titer-Glo, 72 h, read-out: IC50
[22] = NCI-H460, Cell Titer-Glo, 72 h, read-out: IC50
[23] = SK-OV-3, Calcein AM, 72 h, read-out: IC50
[24] = DU-145, Du145, Calcein AM, 72 h, read-out: IC50
[25] = NCI-H460, Calcein AM, 72 h, read-out: IC50
[26] = MCF7, Calcein AM, 72 h, read-out: IC50
[27] = NmuMG, Cell Titer-Glo, read-out: IC50
[28] = MCF7, Cell Titer-Glo, 72 h, read-out: IC50
[29] = HT-29, MTT, 24 h, read-out: IC50
[30] = SF-268, Calcein AM, 72 h, read-out: IC50
[31] = DU-145, Du145, Cell Titer-Glo, 72 h, read-out: IC50
[32] = HCT-116, Calcein AM, 72 h, read-out: IC50
[33] = average across eight human cancer cell lines, MTT (HT-29) values excluded
[34] = HCT-116, Cell Titer-Glo, 72 h, read-out: IC50
[35] = NmuMG, Calcein AM, read-out: IC50
[36] = SF-268, Cell Titer-Glo, 72 h, read-out: IC50

Compound C[S+]([O-])CCCCN=C=S (racemic) [Compound 13, 1-isothiocyanato-4-(methylsulfinyl)butane] has an IC50 [1, 21] of 9.9 µM, an IC50 [2, 22] of 10.1 µM and an IC50 [3, 23] of 5.65 µM. It also gave an IC50 [4, 24] of 6.25 µM, an IC50 [5, 25] of 13 µM and an IC50 [6, 26] of 7.28 µM. It also gave an IC50 [7, 27] of 3.2 µM, an IC50 [8, 28] of 8.59 µM and an IC50 ([9]; Calcein AM, read-out: IC50) of 13.1 µM. For the same compound, the IC50 [10] was < 3.13 µM, the IC50 ([11]; Cell Titer-Glo, read-out: IC50) was 2.75 µM and the IC50 [12, 29] was 46.4 µM. For the same compound, the IC50 [13, 30] was 5.69 µM, the IC50 [14, 31] was 8.62 µM and the IC50 [15, 32] was 6.13 µM. It also gave an IC50 [16, 33] of 7.61 µM, an IC50 [17, 34] of 4.81 µM and an IC50 ([18]; Cell Titer-Glo, read-out: IC50) of 16.5 µM. For the same compound, the IC50 [19, 35] was 5.61 µM and the IC50 [20, 36] was 6.22 µM.
C[S+]([O-])CCCCN=C=S (stereo not drawn) [Compound 2, 1-isothiocyanato-4-(methylsulfinyl) butane, reference compound] was tested, and the IC50 ([1]; SK-OV-3, 72 h) was 4.67 µM, the IC50 ([2]; NCI-H460, 72 h) was 5.94 µM and the IC50 ([3]; SK-OV-3, 72 h) was 7.6 µM. For the same compound, the IC50 ([4]; DU-145, 72 h) was 5.25 µM, the IC50 ([5]; NCI-H460, 72 h) was 8.74 µM and the IC50 ([6]; MCF7, 72 h) was 3.14 µM. For the same compound, the IC50 [7] was 6.59 µM, the IC50 ([8]; MCF7, 72 h) was < 3.13 µM and the IC50 [9] was 8.89 µM. The IC50 [10] was 4.13 µM, the IC50 [11] was 4.48 µM and the IC50 ([12]; HT-29, 24 h) was 45.2 µM. For the same compound, the IC50 ([13]; SF-268, 72 h) was 11 µM, the IC50 ([14]; DU-145, 72 h) was 6.1 µM and the IC50 ([15]; HCT-116, 72 h) was 2.94 µM. The “selectivity for cancer cells over NmuMG cells” value [16] was 1.3 fold, the IC50 ([16]; Homo sapiens) was 5.26 µM and the IC50 ([17]; HCT-116, 72 h) was 3.58 µM. It also gave an IC50 [18] of 8.98 µM, an IC50 [19] of 6.86 µM and an IC50 ([20]; SF-268, 72 h) of 6.16 µM.
Compound CS(=O)(=O)CCCCN=C=S [Compound 14, 1-isothiocyanato-4-(methylsulfonyl)butane] has an IC50 [1, 21] of 6.99 µM, an IC50 [2, 22] of 6.87 µM and an IC50 [3, 23] of 4.84 µM. It also gave an IC50 [4, 24] of 5.24 µM, an IC50 [5, 25] of 10 µM and an IC50 [6, 26] of 8.36 µM. The IC50 [7, 27] was 5.32 µM, the IC50 [8, 28] was 2.28 µM and the IC50 ([9]; Calcein AM, read-out: IC50) was 9.99 µM. It also gave an IC50 ([10]; Calcein AM, read-out: IC50) of 3.46 µM, an IC50 ([11]; Cell Titer-Glo, read-out: IC50) of 4.48 µM and an IC50 [12, 29] of 39.1 µM. The IC50 [13, 30] was 4.72 µM, the IC50 [14, 31] was 4 µM and the IC50 [15, 32] was 4.16 µM. The IC50 [16, 33] was 5.32 µM, the IC50 [17, 34] was 3.29 µM and the IC50 ([18]; Cell Titer-Glo, read-out: IC50) was 11.1 µM. It also gave an IC50 [19, 35] of 7.9 µM and an IC50 [20, 36] of 3.7 µM.
With CC(C)(C)CN=C=S [Compound 16, 1-isothiocyanato-2,2-dimethylpropane] the IC50 [1, 21] was > 50 µM, the IC50 [2, 22] was 30.3 µM and the IC50 [3, 23] was > 50 µM. The IC50 [4, 24] was > 50 µM, the IC50 [5, 25] was > 50 µM and the IC50 [6, 26] was > 50 µM. The IC50 [7, 27] was 26.8 µM, the IC50 [8, 28] was > 50 µM and the IC50 ([9]; Calcein AM, read-out: IC50) was > 50 µM. The IC50 ([10]; Calcein AM, read-out: IC50) was > 50 µM, the IC50 ([11]; Cell Titer-Glo, read-out: IC50) was > 50 µM and the IC50 [12, 29] was > 50 µM. For the same compound, the IC50 [13, 30] was > 50 µM, the IC50 [14, 31] was > 50 µM and the IC50 [15, 32] was > 50 µM. The IC50 [16, 33] was > 50 µM, the IC50 [17, 34] was 35 µM and the IC50 ([18]; Cell Titer-Glo, read-out: IC50) was > 50 µM. The IC50 [19, 35] was 49.4 µM and the IC50 [20, 36] was > 50 µM.
For S=C=NCC1CCCCC1 [Compound 18, (isothiocyanatomethyl)cyclohexane], the IC50 [1, 21] was 33.7 µM, the IC50 [2, 22] was > 50 µM and the IC50 [3, 23] was 29.1 µM. The IC50 [4, 24] was 18.7 µM, the IC50 [5, 25] was 48.1 µM and the IC50 [6, 26] was > 30 µM. For the same compound, the IC50 [7, 27] was 14.8 µM, the IC50 [8, 28] was 33.3 µM and the IC50 ([9]; Calcein AM, read-out: IC50) was > 50 µM. The IC50 ([10]; Calcein AM, read-out: IC50) was 42.1 µM, the IC50 ([11]; Cell Titer-Glo, read-out: IC50) was 29.3 µM and the IC50 [12, 29] was > 50 µM. For the same compound, the IC50 [13, 30] was 15.1 µM, the IC50 [14, 31] was 24.4 µM and the IC50 [15, 32] was 21.9 µM. The “Cancerous Average IC50 / Average IC50 in Cancer Cell Lines” value [16, 33] was 29.31^d μM, the IC50 [16, 33] was 29.3 µM and the IC50 [17, 34] was 20.9 µM. The IC50 ([18]; Cell Titer-Glo, read-out: IC50) was > 50 µM, the IC50 [19, 35] was 22.5 µM and the IC50 [20, 36] was 15.4 µM.
